{"source": "patent US20250236616A1", "about": "“IMMUNOMODULATING AZALIDES” (Zoetis Services LLC, priority 2021, published 2025)", "assay_type_in_all_cases": "cell-based", "key": {"[1]": {"system": "TNF-α", "assay": "Whole bovine blood assay, LPS-induced TNF-α", "settings": "Bos taurus, fresh whole bovine blood, LPS stimulant; top drug concentration 250 μM", "how_it_was_run": "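Fresh heparinized bovine whole blood was preincubated with compound 4 h at 37 °C, then stimulated with LPS (final 1 μg/mL) for 18 h at 37 °C. Plasma TNF-α was quantified by MSD U-Plex chemiluminescent immunoassay, normalized to total protein (BCA), and IC50 taken for LPS-induced TNF-α inhibition.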"}, "[2]": {"system": "IL-1β", "assay": "Whole bovine blood assay, LPS-induced IL-1β (inhibition / overstimulation)", "settings": "Bos taurus, 18 h, drug concentration giving overstimulation (OS) of LPS-induced IL-1β, top concentration 250 μM", "how_it_was_run": "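Fresh heparinized bovine whole blood was preincubated with compound at varying concentrations for 4 h at 37 °C, then stimulated with 1 μg/mL LPS for 18 h. Plasma IL-1β was measured by MSD chemiluminescent immunoassay and normalized to total protein. Values cover inhibition and concentration-dependent overstimulation.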"}, "[3]": {"system": "IL-6", "assay": "Whole bovine blood assay, LPS-induced IL-6", "settings": "Bos taurus, fresh whole bovine blood, LPS stimulant; top drug concentration 250 μM"}}}
{"smiles": "CC[C@H]1OC(=O)[C@H](C)[C@@H](O)[C@H](C)[C@@H](O[C@@H]2O[C@H](C)C[C@H](N(C)S(=O)(=O)c3ccccc3)[C@H]2Oc2ccc(OC)cc2)[C@](C)(O)C[C@@H](C)CN[C@H](C)[C@@H](O)[C@]1(C)O", "note": "[Example A-9, N-((2S,3R,4S,6R)-2-(((2R,3S,4R,5R,8R,10R,11R,12S,13S,14R)-2-ethyl-3,4,10,13-tetrahydroxy-3,5,8,10, 12, 14-hexamethyl-15-oxo-1-oxa-6-azacyclopentadecan-11-yl)oxy)-3-(4-methoxyphenoxy)-6-methyltetrahydro-2H-pyran-4-yl)-N-methylbenzenesulfonamide]", "values": [{"measurement": "IC50", "setting": "[1]", "result": 4, "unit": "µM"}, {"measurement": "minimal effective concentration", "setting": "[2]", "result": 16, "unit": "µM"}, {"measurement": "IC50", "setting": "[3]", "result": 21, "unit": "µM"}]}
{"smiles": "CCCNC[C@]1(O)[C@H](C)O[C@@H](O[C@H]2[C@H](C)[C@@H](O[C@@H]3O[C@H](C)C[C@H](N(C)S(=O)(=O)c4ccc(C)cc4)[C@H]3O)[C@](C)(O)C[C@@H](C)CN[C@H](C)[C@@H](O)[C@](C)(O)[C@@H](CC)OC(=O)[C@@H]2C)C[C@@]1(C)OC", "note": "[Example B-26, N-((2S,3R,4S,6R)-2-(((2R,3S,4R,5R,8R,10R,11R,12S,13S,14R)-2-ethyl-3,4,10-trihydroxy-13-(((2R,4R,5S,6S)-5-hydroxy-4-methoxy-4,6-dimethyl-5-((propylamino)methyl)tetrahydro-2H-pyran-2-yl)oxy)-3,5,8,10,12,14-hexamethyl-15-oxo-1-oxa-6-azacyclopentadecan-11-yl)oxy)-3-hydroxy-6-methyltetrahydro-2H-pyran-4-yl)-N,4-dimethylbenzenesulfonamide]", "values": [{"measurement": "IC50", "setting": "[1]", "result": 20, "unit": "µM"}, {"measurement": "minimal effective concentration", "setting": "[2]", "result": 16, "unit": "µM"}]}
{"smiles": "CCCNC[C@]1(O)[C@H](C)O[C@@H](O[C@H]2[C@H](C)[C@@H](O[C@@H]3O[C@H](C)C[C@H](N(C)S(=O)(=O)Nc4ccc(C(F)(F)F)cc4)[C@H]3O)[C@](C)(O)C[C@@H](C)CN[C@H](C)[C@@H](O)[C@](C)(O)[C@@H](CC)OC(=O)[C@@H]2C)C[C@@]1(C)OC", "note": "[Example B-50, (2R,3S,4R,5R,8R,10R,11R,12S,13S, 14R)-2-ethyl-3,4,10-trihydroxy-13-[(2R,4R,5S,6S)-5-hydroxy-4-methoxy-4,6-dimethyl-5-(propylaminomethyl)oxan-2-yl]oxy-11-[(2S,3R,4S,6R)-3-hydroxy-6-methyl-4-[methyl-[[4-(trifluoromethyl)phenyl]sulfamoyl]amino]oxan-2-yl]oxy-3,5,8, 10, 12, 14-hexamethyl-15-oxo-1-oxa-6-azacyclopentadecane]", "values": [{"measurement": "minimal effective concentration", "setting": "[2]", "result": 6, "unit": "µM"}, {"measurement": "IC50", "setting": "[3]", "result": 49, "unit": "µM"}]}
{"smiles": "CC[C@H]1OC(=O)[C@H](C)[C@@H](O[C@H]2C[C@@](C)(OC)[C@](O)(CN3CCCCC3)[C@H](C)O2)[C@H](C)[C@@H](O[C@@H]2O[C@H](C)C[C@H](N(C)S(=O)(=O)c3ccc(Cl)cc3)[C@H]2O)[C@](C)(O)C[C@@H](C)CN[C@H](C)[C@@H](O)[C@]1(C)O", "note": "[Example C-4, 4-chloro-N-((2S,3R,4S,6R)-2-(((2R,3S,4R,5R,8R,10R,11R,12S,13S,14R)-2-ethyl-3,4,10-trihydroxy-13-(((2R,4R,5S,6S)-5-hydroxy-4-methoxy-4,6-dimethyl-5-(piperidin-1-ylmethyl)tetrahydro-2H-pyran-2-yl)oxy)-3,5,8, 10, 12, 14-hexamethyl-15-oxo-1-oxa-6-azacyclopentadecan-11-yl)oxy)-3-hydroxy-6-methyltetrahydro-2H-pyran-4-yl)-N-methylbenzenesulfonamide]", "values": [{"measurement": "IC50", "setting": "[1]", "result": 5, "unit": "µM"}, {"measurement": "minimal effective concentration", "setting": "[2]", "result": 16, "unit": "µM"}]}
{"smiles": "CC[C@H]1OC(=O)[C@H](C)[C@@H](O[C@H]2C[C@@](C)(OC)[C@](O)(CN3CCCCC3)[C@H](C)O2)[C@H](C)[C@@H](O[C@@H]2O[C@H](C)C[C@H](N(C)S(=O)(=O)Nc3ccc(C(F)(F)F)cc3)[C@H]2O)[C@](C)(O)C[C@@H](C)CN[C@H](C)[C@@H](O)[C@]1(C)O", "note": "[Example C-11, (2R,3S,4R,5R,8R,10R,11R,12S, 13S, 14R)-2-ethyl-3,4, 10-trihydroxy-13-[(2R,4R,5S,6S)-5-hydroxy-4-methoxy-4,6-dimethyl-5-(piperidin-1-ylmethyl)oxan-2-yl]oxy-11-[(2S,3R,4S,6R)-3-hydroxy-6-methyl-4-[methyl-[[4-(trifluoromethyl)phenyl]sulfamoyl]amino]oxan-2-yl]oxy-3,5,8, 10, 12, 14-hexamethyl-15-oxo-1-oxa-6-azacyclopentadecane]", "values": [{"measurement": "IC50", "setting": "[1]", "result": 17, "unit": "µM"}, {"measurement": "IC50", "setting": "[3]", "result": 13, "unit": "µM"}]}
{"smiles": "CCCNC[C@]1(O)[C@H](C)O[C@@H](O[C@H]2[C@H](C)[C@@H](O[C@@H]3O[C@H](C)C[C@H](NC)[C@H]3O)[C@](C)(O)C[C@@H](C)CN[C@H](C)[C@@H](O)[C@](C)(O)[C@@H](CC)OC(=O)[C@@H]2C)C[C@@]1(C)OC", "note": "[Example M9, (2R,3S,4R,5R,8R,10R,11R,12S,13S,14R)-2-ethyl-3,4, 10-trihydroxy-13-(((2R,4R,5S,6S)-5-hydroxy-4-methoxy-4,6-dimethyl-5-((propylamino)methyl)-tetrahydro-2H-pyran-2-yl)oxy)-11-(((2S,3R,4S,6R)-3-hydroxy-6-methyl-4-(methylamino)tetrahydro-2H-pyran-2-yl)oxy)-3,5,8,10,12,14-hexamethyl-1-oxa-6-azacyclopentadecan-15-one]", "values": [{"measurement": "IC50", "setting": "[1]", "result": 250, "unit": "µM"}]}
